Measured values reported in patent publication US20220017863A1, “SIRT2-ABLATED CHIMERIC T CELLS” (H. Lee Moffitt Cancer Center and Research Institute, Inc., priority 2019, published 2022).
“Also recorded” adds a separate entry of the source.

Tests used:
[1] = system: CD3-stimulated CD3+ splenic T cells; experiment: Seahorse OCR of activated CD3+ splenic T cells with mitochondrial fuel pathway inhibitors; assay type: cell-based, mouse; details: for maximal respiration: activated Sirt2−/− CD3+ T cells; for maximal respiration (in response of FCCP): activated WT CD3+ T cells
Protocol: (§1) Extracellular acidification rate (ECAR) and oxygen consumption rate (OCR) were measured using the Seahorse XF analyzer (Agilent technologies). Glycolysis Stress Test (GST), glycolytic rate assay (GRA) and mitochondrial stress test (MST) were purchased from Agilent technologies and performed according to the kit manufacturer's instructions.
(§2) The day of the assay, 2×10^5 activated T cells were plated in Cell-Tak (Corning)-coated XF96 plates in XF media (XF RPMI Medium pH 7.4 containing 2 mM L-glutamine only for GST or supplemented with 10 mM glucose, 2 mM L-glutamine and 1 mM sodium pyruvate for GRA and MST, all from Agilent technologies) via centrifugation to ensure cell attachment. Cells were equilibrated for 1 hr in a non-CO2 incubator before starting the assay.
(§3) To measure the contribution of glycolysis, glutaminolysis and FAO as fuels for mitochondrial metabolism, OCR and ECAR were measured under basal conditions and in response to sequential injections of vehicle, UK5099 (2 μM), BPTES (3 μM) or Etomoxir (4 μM) inhibitors and then 1 μM oligomycin, 1 μM FCCP (Carbonyl cyanide 4-trifluoromethoxyphenylhydrazone) and 0.5 μM rotenone/antimycin A.

[2] = system: TILs from B16F10 tumor nodules; experiment: Seahorse OCR of TILs freshly isolated from B16F10 tumor nodules with Etomoxir; assay type: cell-based, mouse
Protocol: Lymphocytes from subcutaneous tumors were isolated by dicing the tissues followed by enzymatic digestion in PBS containing collagenase type 4 (2 mg/ml, Worthington Biochemical) and DNase I (0.25 mg/ml, Sigma-Aldrich) for 45 min with occasional shaking at 37° C. Cell suspensions were then twice filtered through 100 μm and 40 μm cell strainers (Thermo Fisher Scientific) to obtain single-cell suspension followed by a PBS wash and red blood cell lysis using RBC Lysis Buffer (Biolegend). TILs were finally isolated by density gradient centrifugation using Percoll (GE Healthcare) and were further purified using CD3c MicroBeads Kit™ (Miltenyi Biotec) according to the manufacturer's instructions. T cell purity was greater than 90%. Fresh TILs were used directly for phenotypic and metabolic analyses or were cultured in complete RPMI medium for functional assays.
as §3

[3] = target: T1, Sirt2 deacetylase activity (Homo sapiens, UniProt Q8IXJ6); experiment: Western blot of acetylated α-tubulin in human CD3+ enriched T cells; assay type: cell-based; details: 48 hr, listed as TM
T1 construct: endogenous in cells; host or cells: human CD3+ T cells enriched from PBMC of healthy donors
T1 sequence (Q8IXJ6 1-389): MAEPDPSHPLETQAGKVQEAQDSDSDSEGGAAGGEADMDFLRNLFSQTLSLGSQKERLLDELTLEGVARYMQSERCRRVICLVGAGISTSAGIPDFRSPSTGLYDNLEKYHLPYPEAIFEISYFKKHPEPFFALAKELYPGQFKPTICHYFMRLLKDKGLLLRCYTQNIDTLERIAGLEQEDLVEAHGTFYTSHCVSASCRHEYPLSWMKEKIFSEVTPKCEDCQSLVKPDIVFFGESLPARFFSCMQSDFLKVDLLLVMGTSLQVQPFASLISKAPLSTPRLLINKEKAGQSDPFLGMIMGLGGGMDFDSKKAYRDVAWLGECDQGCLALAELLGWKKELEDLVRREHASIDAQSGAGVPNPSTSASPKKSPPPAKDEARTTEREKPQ
Protocol: (§4) Human peripheral blood mononuclear cells (PBMC) were obtained from healthy donors by density gradient centrifugation using Ficoll-Paque™ PLUS Media (GE Healthcare). CD3^+ lymphocytes were negatively enriched using human Pan T cell isolation Kit™ (Miltenyi Biotec).
Whole cell lysates were prepared using lysis buffer (Pierce RIPA buffer, ThermoFisher Scientific) supplemented with cOmplete™ Protease Inhibitor Cocktail and PhosSTOP Phosphatase Inhibitor (Roche Applied Science).
Cell lysates (20 ug) or IP samples were loaded onto 10% SDS-PAGE and separated by electrophoresis followed by semi-dry transfer into polyvinylidene fluoride membranes (Immun-Blot PVDF membrane, Bio-Rad) using Trans-Blot Turbo transfer system (Bio-Rad). After transfer, the membranes were blocked at room temperature with Tris-buffered saline (TBS) containing 0.05% Tween-20 (TBST) and 5% (w/v) milk for 1 h and then incubated overnight at 4° C. with a specific primary antibody (indicated below). […] After washing 3 times with TBST, bound antibodies were detected by chemiluminescence using the Pierce™ ECL Western Blotting Substrate and the Super Signal West Femto Maximum Sensitivity Substrate kits (ThermoFisher Scientific). […]

[4] = system: human CD3+ T cells; experiment: IFN-γ ELISPOT on human CD3+ T cells from healthy donors; assay type: cell-based; details: inhibitor vs vehicle, 48 hr, listed as TM
[5] = system: human CD3+ T cells; experiment: Seahorse extracellular flux analysis of CD3-stimulated human CD3+ T cells from healthy donors; assay type: cell-based; details: anti-CD3 plus inhibitor vs vehicle, 48 hr
Protocol: as §4
Extracellular acidification rates (ECAR) were measured using the Seahorse XF analyzer (Agilent). Glycolysis Stress Test (GST) and glycolytic rate assay (GRA) were performed according to kit manufacturer's instructions.
as §2, with “test,” for “and MST,”, “hour” for “hr”
For GST, ECAR was measured under basal conditions and in response to 10 mM glucose, 1 μM oligomycin and 50 mM 2-DG successively to calculate basal glycolytic rate, glycolytic capacity (in response to oligomycin), and glycolytic reserve (glycolytic capacity−basal rate). For GRA, ECAR was measured under basal conditions and in response to 0.5 μM rotenone+0.5 μM antimycin A and 50 mM 2-DG successively to calculate basal glycolysis and compensatory glycolysis (in response to rotenone+antimycin A). Results were normalized to total protein quantified using Pierce™ BCA Protein Assay Kit (ThermoFisher Scientific).
Human peripheral blood mononuclear cells (PBMC) were obtained from healthy donors by density gradient centrifugation using Ficoll-Paque™ PLUS Media (GE Healthcare). CD3^+ lymphocytes were negatively enriched using human Pan T cell isolation Kit™ (Miltenyi Biotec). […].
as §1, with “instructions. […]” for “instructions.”
For GST, ECAR and OCR were measured under basal conditions and in response to 10 mM glucose, 1 μM oligomycin and 50 mM 2-DG successively to calculate basal glycolytic rate, glycolytic capacity (in response to oligomycin), and glycolytic reserve (glycolytic capacity basal rate).
For GRA, ECAR and OCR were measured under basal conditions and in response to 0.5 μM roteone/antimycin A and 50 mM 2-DG successively to calculate basal glycolysis and compensatory glycolysis (in response to rotenone/antimycin A).

[6] = system: Pmel T cells; experiment: IFN-γ ELISPOT on gp100-stimulated Pmel T cells; assay type: cell-based, mouse; details: gp100-stimulated Sirt2KO (Sirt2−/−) Pmel T cells
Protocol: Spleens and/or Lymph nodes (LN) were collected from WT, Sirt2KO, Pmel/WT, Pmel/Sirt2KO mice and processed into single-cell suspensions. CD3^+, CD4^+ and CD8^+ T cells were negatively enriched using Mouse Pan T cell, CD4^+ T cell and CD8^+ T cell isolation Kits™ respectively according to the manufacturers' instructions. The purity of the isolated cells was confirmed by flow cytometry (>95%). Purified T cells were cultured in completed RPMI 1640 medium (ThermoFisher Scientific) supplemented with 10% (vol/vol) Fetal bovine serum (FBS, Biowest) and 1% (vol/vol) penicillin/streptomycin (P/S, Thomas Scientific Inc). […]
The number of IFN-γ producing cells was evaluated in an ELISPOT assay. […] After washing steps and biotinylated anti-IFN-γ antibody (R4-6A2, ThermoFisher Scientific)+Streptavidin-HRP (BD Bioscience) labeling, spots were detected using AEC Substrate Kit (BD Biosciences) and counted using an AID ELISPOT Reader System (Autoimmun Diagnostika GmbH). […]
The number of IFN-γ producing cells was evaluated in an ELISPOT assay. […] After washing steps and successive biotinylated anti-IFN-γ antibody (R4-6A2, Mabtech, Inc.) and Streptavidin-HRP (BD Bioscience) labeling, spots were detected using AEC Substrate Kit (BD Biosciences) and counted using an AID ELISPOT Reader System (Autoimmun Diagnostika GmbH).

With `O=C(Cc1ccccc1)Nc1nnc(CCSCCc2nnc(NC(=O)Cc3ccccc3)s2)s1` [BPTES] the maximal respiration [1] was “insensitive” and the “maximal respiration (in response of FCCP)” value [1] was “significantly suppressed”.

`CCOC(=O)[C@@]1(CCCCCCOc2ccc(Cl)cc2)CO1` [Etomoxir] was tested, and the maximal respiration [1] was “insensitive”, the “maximal respiration (in response of FCCP)” value [1] was “significantly suppressed” and the maximal respiration ([2]; Sirt2−/− TILs) was “remained resistant”. For the same compound, the maximal respiration ([2]; WT TILs) was “decreases”.

In the case of `CCCCCCCCCCCCCC(=S)NCCCC[C@H](NC(=O)OCc1ccccc1)C(=O)Nc1ccccc1` [Thiomyristoyl], the “capacity to block Sirt2 deacetylase activity, monitored by acetylated α-tubulin levels” value [3] is reported as “confirmed; also recorded: validated”, the “IFN-γ production (effector function)” value [4] is reported as “increased; also recorded: augments” and the OxPhos [5] is reported as “increased”. For the same compound, the “aerobic glycolysis (ECAR/PER)” value ([5]; listed as TM) was “increased; also recorded: augments”.

For `N#C/C(=C\c1cn(-c2ccccc2)c2ccccc12)C(=O)O` [UK5099], the maximal respiration [1] was “insensitive” and the “maximal respiration (in response of FCCP)” value [1] was “significantly suppressed”.

With `CC[C@H]1/C=C/C=C/C[C@@H](C)[C@H](O)[C@@](C)(O)C(=O)[C@@H](C)[C@H](O)[C@@H](C)C(=O)[C@@H](C)[C@H](O)[C@@H](C)/C=C/C(=O)O[C@@H]2[C@H](C)[C@H](CC1)O[C@]1(CC[C@H](C)[C@H](C[C@@H](C)O)O1)[C@H]2C` [oligomycin] the IFN-γ release [6] was “suppressed”.
